Values of other authors in patent US20070043054A1, “Enzyme cofactor combination for supplementing pyruvate dehydrogenase and alpha ketogluterate dehydrogenase complexes” (priority 2004, published 2007).

Legend:
[1] = for stability in aqueous solution: neutral or alkaline solutions

| Compound | solubility in water | stability in aqueous solution [1] | solubility in alkali (alkali) | solubility in organic solvents (organic solvents) | stability to dry heat [1] | temperature up to which the dry form is stable ([1]; dry form) |
| --- | --- | --- | --- | --- | --- | --- |
| NC(=O)c1cccnc1 [Niacinamide] | soluble in water and ethanol | stable for a short period when autoclaved |  |  |  |  |
| Cc1cc2nc3c(=O)[nH]c(=O)nc-3n(C[C@H](O)[C@H](O)[C@H](O)CO)c2cc1C [Riboflavin] | very slightly soluble in water | stable to oxidizing agents in strong mineral acids and in neutral aqueous solution | soluble in alkali | insoluble in most organic solvents | stable to dry heat |  |
| O=C(O)c1cccnc1 [niacin] |  |  |  |  |  | about 60 °C |
| Cc1ncc(C[n+]2csc(CCO)c2C)c(N)n1 [Thiamine] | water-soluble | rapidly broken down in neutral or alkaline solutions |  |  | comparatively stable to dry heat |  |
